Experimental data from patent US10131652B2, “Pyrimidinyloxy benzene derivatives as herbicides” (E. I. DU PONT DE NEMOURS AND COMPANY, priority 2014, dated 2018).
Like-named read-outs stand apart in the source and are kept apart here.

What was measured:
Assay in all cases: Test D pre-/postemergence plant response
Assay type in all cases: in vivo
[1] = tested on: morningglory (Ipomoea coccinea); settings: Ipomoea; for pest or weed control at 16 g/ha: 16 g ai/ha; for pest or weed control at 31 g/ha: 31 g ai/ha; for pest or weed control at 62 g/ha: 62 g ai/ha; for pest or weed control at 125 g/ha: 125 g ai/ha
Summary of the method: (§1)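 Visual injury scoring (0–100) at 13 to 15 days in greenhouse. Preemergence sprays on seeded loam/sand; postemergence sprays on 1–4 leaf plants.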

soybean (Glycine max) = settings: Glycine max; for plant injury at 16 g/ha: 16 g ai/ha; for plant injury at 31 g/ha: 31 g ai/ha; for plant injury at 62 g/ha: 62 g ai/ha; for plant injury at 125 g/ha: 125 g ai/ha
Summary of the method: as §1

[2] = tested on: velvetleaf (Abutilon theophrasti); settings: Abutilon theophrasti; for pest or weed control at 16 g/ha: 16 g ai/ha; for pest or weed control at 31 g/ha: 31 g ai/ha; for pest or weed control at 62 g/ha: 62 g ai/ha; for pest or weed control at 125 g/ha: 125 g ai/ha
Summary of the method: as §1

[3] = tested on: waterhemp (common waterhemp, Amaranthus rudis); settings: Amaranthus tuberculatus; for pest or weed control at 16 g/ha: 16 g ai/ha; for pest or weed control at 31 g/ha: 31 g ai/ha; for pest or weed control at 62 g/ha: 62 g ai/ha; for pest or weed control at 125 g/ha: 125 g ai/ha
Summary of the method: as §1

[4] = tested on: winter wheat (Triticum aestivum); settings: Triticum aestivum; for plant injury at 16 g/ha: 16 g ai/ha; for plant injury at 31 g/ha: 31 g ai/ha; for plant injury at 62 g/ha: 62 g ai/ha; for plant injury at 125 g/ha: 125 g ai/ha
Summary of the method: as §1

[5] = post-emergence, Postemergence, scale 0 to 100 (0 no effect, 100 complete control), read-out: Morningglory plant response rating
[6] = post-emergence, Postemergence, scale 0 to 100, 0 no effect, 100 complete control, read-out: Plant response rating, Morningglory
[7] = pre-emergence, Preemergence, scale 0 to 100 (0 no effect, 100 complete control), read-out: Plant response rating, Morningglory
[8] = post-emergence, Postemergence, scale 0 to 100 (0 no effect, 100 complete control), read-out: Soybean plant response rating
[9] = post-emergence, Postemergence, scale 0 to 100, 0 no effect, 100 complete control, read-out: Plant response rating, Soybean
[10] = pre-emergence, Preemergence, scale 0 to 100 (0 no effect, 100 complete control), read-out: Plant response rating, Soybean
[11] = post-emergence, Postemergence, scale 0 to 100 (0 no effect, 100 complete control), read-out: Velvetleaf plant response rating
[12] = post-emergence, Postemergence, scale 0 to 100, 0 no effect, 100 complete control, read-out: Plant response rating, Velvetleaf
[13] = pre-emergence, Preemergence, scale 0 to 100 (0 no effect, 100 complete control), read-out: Plant response rating, Velvetleaf
[14] = post-emergence, Postemergence, scale 0 to 100 (0 no effect, 100 complete control), read-out: Waterhemp plant response rating
[15] = post-emergence, Postemergence, scale 0 to 100, 0 no effect, 100 complete control, read-out: Plant response rating, Waterhemp
[16] = pre-emergence, Preemergence, scale 0 to 100 (0 no effect, 100 complete control), read-out: Plant response rating, Waterhemp
[17] = post-emergence, Postemergence, scale 0 to 100 (0 no effect, 100 complete control), read-out: Wheat plant response rating
[18] = post-emergence, Postemergence, scale 0 to 100, 0 no effect, 100 complete control, read-out: Plant response rating, Wheat
[19] = pre-emergence, Preemergence, scale 0 to 100 (0 no effect, 100 complete control), read-out: Plant response rating, Wheat

## FC(F)(F)c1cc(-c2ccccc2Oc2ncc(Cl)cn2)on1 [Compound 63, 5-chloro-2-[2-[3-(trifluoromethyl)-5-isoxazolyl]phenoxy]pyrimidine]
[1]; [5]
  pest or weed control at 16 g/ha: 50%
  pest or weed control at 31 g/ha: 50%
[1]; [6]
  pest or weed control at 62 g/ha: 98%
  pest or weed control at 125 g/ha: 70%
[1]; pre-emergence, Preemergence, read-out: Plant response rating (scale 0 to 100), Morningglory
  pest or weed control at 125 g/ha: 60%
[1]; [7]
  pest or weed control at 16 g/ha: 0%
  pest or weed control at 31 g/ha: 0%
  pest or weed control at 62 g/ha: 25%
Soybean (Glycine max); [8]
  plant injury at 16 g/ha: 35%
  plant injury at 31 g/ha: 45%
Soybean (Glycine max); [9]
  plant injury at 62 g/ha: 55%
  plant injury at 125 g/ha: 98%
Soybean (Glycine max); pre-emergence, Preemergence, read-out: Plant response rating (scale 0 to 100), Soybean
  plant injury at 125 g/ha: 60%
Soybean (Glycine max); [10]
  plant injury at 16 g/ha: 5%
  plant injury at 31 g/ha: 15%
  plant injury at 62 g/ha: 45%
[2]; [11]
  pest or weed control at 16 g/ha: 10%
  pest or weed control at 31 g/ha: 25%
[2]; [12]
  pest or weed control at 62 g/ha: 40%
  pest or weed control at 125 g/ha: 40%
[2]; pre-emergence, Preemergence, read-out: Plant response rating (scale 0 to 100), Velvetleaf
  pest or weed control at 125 g/ha: 100%
[2]; [13]
  pest or weed control at 16 g/ha: 40%
  pest or weed control at 31 g/ha: 100%
  pest or weed control at 62 g/ha: 100%
[3]; [14]
  pest or weed control at 16 g/ha: 85%
  pest or weed control at 31 g/ha: 85%
[3]; [15]
  pest or weed control at 62 g/ha: 98%
  pest or weed control at 125 g/ha: 98%
[3]; pre-emergence, Preemergence, read-out: Plant response rating (scale 0 to 100), Waterhemp
  pest or weed control at 125 g/ha: 100%
[3]; [16]
  pest or weed control at 16 g/ha: 90%
  pest or weed control at 31 g/ha: 100%
  pest or weed control at 62 g/ha: 100%
[4]; [17]
  plant injury at 16 g/ha: 0%
  plant injury at 31 g/ha: 0%
[4]; [18]
  plant injury at 62 g/ha: 5%
  plant injury at 125 g/ha: 5%
[4]; pre-emergence, Preemergence, read-out: Plant response rating (scale 0 to 100), Wheat
  plant injury at 125 g/ha: 45%
[4]; [19]
  plant injury at 16 g/ha: 0%
  plant injury at 31 g/ha: 0%
  plant injury at 62 g/ha: 10%
